This is an account of results in patent publication US20100063085A1, “METHOD OF TREATING LEARNING IMPAIRMENT IN DOWN'S SYNDROME SUBJECTS” (University Court of The University of Dundee, priority 2008, published 2010).

Read-outs that look alike come from different tables or passages of the source.

Holding throughout (experiment): biochemical
The target in one assay is MARK3 (Homo sapiens, UniProt P27448). As to conditions: read-out: MARK3 activity as percentage of control without inhibitor. On the procedure:
(§1) All assays (25.5 μl) were carried out at room temperature (21° C.) and were linear with respect to time and enzyme concentrations under the conditions used. Assays were performed for 30 minutes except assays for LCK and PKB which were performed for 15 minutes using Multidrop Micro reagent dispensers (Thermo Electron Corporation, Waltham, Mass. 02454, USA) in a 96-well format. The concentration of […] [γ-^33P] ATP (800 cpm/pmol) in the assays was one of three concentrations (5, 20 or 50 μM) in order to be at or below Km for ATP for the enzyme. Assays were initiated with MgATP and stopped by addition of 5 μl of 0.5M orthophosphoric acid. Assays were then harvested onto P81 filterplates using a unifilter harvester (PerkinElmer, Boston, Mass. 02118, USA), with a wash buffer of 50 mM orthophosphoric acid. Filterplates were then air dried overnight. 10 μl of Microscint O was added per well prior to counting for radioactivity.
(§2) The following kinases were assayed against the substrates indicated. Aurora B was assayed against the substrate peptide […] (300 μM), ERK8 and MST-2 were both assayed against MBP (0.33 mg/ml). IKKβ was assayed against the substrate peptide […] (300 μM), JNK3 was assayed against 3 μM ATF2[19-96]. MAPKAP-K3 and PKD1 were both assayed against […] (30 μM), MARK3 was assayed against CHKtide ([…]) substrate peptide (300 μM). MNK1 and MNK2 were both assayed against eIF4E protein (0.5 mg/ml). NEK7 was assayed against […] (300 μM), PIM2 was assayed against […] (300 μM), ΔPH PKBβ-S474D was assayed against Crosstide (30 μM), PLK1 was assayed against […] (300 μM). PRK2 was assayed against Long S6 peptide, […] (30 μM), RSK2 was assayed against […] (30 μM), SRC was assayed against cdc2 peptide, […], (300 μM) and SRPK1 was assayed against peptide […] (300 μM). All enzymes were diluted in 50 mM Tris/HCl pH 7.5, 0.1 mM EGTA, 1 mg/ml BSA, 0.1% β-mercaptoethanol buffer and assayed in an incubation containing 50 mM Tris/HCl pH7.5, 0.1 mM EGTA, 0.1% β-mercaptoethanol, CAMK-1 (5-20 mU) diluted in 50 mM Tris/HCl pH 7.5, 0.1 mM EGTA, 1 mg/ml BSA, 0.1% β-mercaptoethanol is assayed against substrate peptide […] in an incubation containing 50 mM Tris/HCl pH 7.5, 0.1 mM EGTA, 0.5 mM CaCl2, 0.3 μM calmodulin, 0.1% β-mereaptoethanol, 300 μM substrate peptide, 10 mM magnesium acetate and 0.05 mM [^33P-γ-ATP] (500-1000 cpm/pmole). EF2K (5-20 mU) diluted in 50 mM Hepes pH 6.6, 0.1% β-mercaptoethanol, 1 mg/ml BSA is assayed against a substrate peptide […] in an incubation containing 50 mM Hepes pH 6.6, 0.2 mM CaCl2, 0.3 μM Calmodulin, 0.05% b-mercaptoethanol, 300 μM substrate peptide, 10 mM magnesium acetate and 0.05 mM [^33P-γ-ATP] (500-1000 cpm/pmole).

The target of another assay is MNK1 (Homo sapiens, UniProt Q9BUB5). As to conditions: read-out: MNK1 activity as percentage of control without inhibitor. On the procedure: as §1, §2
Another assay deals with T1, IKKb (Homo sapiens, UniProt O14920).
T1 sequence (O14920 1-756): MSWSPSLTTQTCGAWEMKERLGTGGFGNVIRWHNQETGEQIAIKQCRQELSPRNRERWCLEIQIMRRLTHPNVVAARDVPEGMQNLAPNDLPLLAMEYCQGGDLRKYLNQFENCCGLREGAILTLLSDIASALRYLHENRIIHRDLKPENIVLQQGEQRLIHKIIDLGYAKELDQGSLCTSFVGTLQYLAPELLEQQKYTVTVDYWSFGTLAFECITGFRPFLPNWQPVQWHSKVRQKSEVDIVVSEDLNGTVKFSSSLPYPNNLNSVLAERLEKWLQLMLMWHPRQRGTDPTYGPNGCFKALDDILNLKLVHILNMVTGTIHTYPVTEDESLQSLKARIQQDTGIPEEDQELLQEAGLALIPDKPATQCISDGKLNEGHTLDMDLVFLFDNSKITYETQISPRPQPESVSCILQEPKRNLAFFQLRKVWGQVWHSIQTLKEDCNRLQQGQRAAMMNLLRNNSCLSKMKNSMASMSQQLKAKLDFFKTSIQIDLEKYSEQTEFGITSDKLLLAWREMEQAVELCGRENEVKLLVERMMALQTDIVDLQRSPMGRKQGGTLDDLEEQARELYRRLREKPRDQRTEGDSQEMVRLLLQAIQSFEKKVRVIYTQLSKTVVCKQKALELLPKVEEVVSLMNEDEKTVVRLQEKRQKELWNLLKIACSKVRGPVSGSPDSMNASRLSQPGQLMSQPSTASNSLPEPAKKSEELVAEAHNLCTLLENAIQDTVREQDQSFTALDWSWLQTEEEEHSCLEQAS
As to conditions: read-out: IKKb activity as percentage of control without inhibitor. On the procedure:
as §1, §2

A further assay concerns the target T2, MST2 (Homo sapiens, UniProt Q13188).
T2 sequence (Q13188 1-491): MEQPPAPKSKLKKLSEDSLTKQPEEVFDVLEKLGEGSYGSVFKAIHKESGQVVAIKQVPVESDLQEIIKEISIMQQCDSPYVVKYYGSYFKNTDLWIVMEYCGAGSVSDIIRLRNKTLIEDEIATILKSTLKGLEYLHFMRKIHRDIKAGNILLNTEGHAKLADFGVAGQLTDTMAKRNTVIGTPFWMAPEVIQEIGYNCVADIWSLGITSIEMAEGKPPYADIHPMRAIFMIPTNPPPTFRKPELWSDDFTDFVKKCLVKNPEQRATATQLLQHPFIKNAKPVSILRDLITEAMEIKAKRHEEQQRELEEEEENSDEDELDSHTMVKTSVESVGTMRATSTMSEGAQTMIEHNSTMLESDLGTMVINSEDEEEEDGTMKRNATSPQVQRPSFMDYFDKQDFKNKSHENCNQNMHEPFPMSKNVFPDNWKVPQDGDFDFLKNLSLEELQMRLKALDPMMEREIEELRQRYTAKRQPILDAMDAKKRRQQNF
As to conditions: read-out: MST2 activity as percentage of control without inhibitor. The method, then:
as §1, §2

For a further assay, the target named is CAMK-1 (Homo sapiens, UniProt Q14012). As to conditions: read-out: CAMK-1 activity as percentage of control without inhibitor. On the procedure: as §1, §2

Sequence of MARK3 (P27448 whole entry, species assumed): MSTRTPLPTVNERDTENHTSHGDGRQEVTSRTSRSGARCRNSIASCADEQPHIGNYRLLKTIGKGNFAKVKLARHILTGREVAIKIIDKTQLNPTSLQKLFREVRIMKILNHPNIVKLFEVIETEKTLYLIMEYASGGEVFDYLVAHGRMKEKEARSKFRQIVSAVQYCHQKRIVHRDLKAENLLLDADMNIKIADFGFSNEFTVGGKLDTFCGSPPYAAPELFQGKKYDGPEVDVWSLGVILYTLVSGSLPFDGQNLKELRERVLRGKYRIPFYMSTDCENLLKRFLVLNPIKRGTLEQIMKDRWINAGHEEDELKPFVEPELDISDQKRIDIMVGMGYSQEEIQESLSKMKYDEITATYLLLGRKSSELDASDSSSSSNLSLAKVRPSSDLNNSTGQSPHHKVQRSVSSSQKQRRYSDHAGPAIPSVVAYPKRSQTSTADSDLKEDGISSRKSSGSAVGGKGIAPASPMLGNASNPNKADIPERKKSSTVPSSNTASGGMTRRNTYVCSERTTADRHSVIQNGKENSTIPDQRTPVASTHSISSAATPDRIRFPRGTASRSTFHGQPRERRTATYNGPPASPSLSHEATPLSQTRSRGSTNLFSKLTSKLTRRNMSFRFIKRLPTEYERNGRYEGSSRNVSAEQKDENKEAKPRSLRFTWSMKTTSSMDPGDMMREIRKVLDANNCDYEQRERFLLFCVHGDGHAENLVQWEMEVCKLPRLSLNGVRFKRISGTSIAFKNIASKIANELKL
Sequence of MNK1 (Q9BUB5 whole entry, species assumed): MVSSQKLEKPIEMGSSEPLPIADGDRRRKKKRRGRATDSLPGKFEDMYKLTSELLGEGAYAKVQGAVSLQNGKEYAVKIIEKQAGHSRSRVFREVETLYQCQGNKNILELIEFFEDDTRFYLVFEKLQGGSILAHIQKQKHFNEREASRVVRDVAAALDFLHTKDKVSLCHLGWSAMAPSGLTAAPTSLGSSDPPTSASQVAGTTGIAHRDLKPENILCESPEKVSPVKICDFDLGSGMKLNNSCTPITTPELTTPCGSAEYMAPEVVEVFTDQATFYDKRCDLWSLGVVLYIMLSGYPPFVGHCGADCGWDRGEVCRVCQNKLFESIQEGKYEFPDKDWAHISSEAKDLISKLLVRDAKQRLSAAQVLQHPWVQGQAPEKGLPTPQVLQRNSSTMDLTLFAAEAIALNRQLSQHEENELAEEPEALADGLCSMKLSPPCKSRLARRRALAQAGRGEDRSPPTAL

Regarding `COc1ccc2c3c([nH]c2c1)C(C)=NCC3` [Harmaline], the remaining activity at 1 µM on MARK3 (inhibitor 1 μM) worked out at 99%; at MNK1 (inhibitor 1 μM), 89%; on IKKb (inhibitor 1 μM) it was 78%; at MST2 (inhibitor 1 μM), 98%; at CAMK-1 (inhibitor 1 μM), 99%. Further, the remaining activity at 10 µM is 103% on MARK3 (inhibitor 10 μM); 82% on MNK1 (inhibitor 10 μM); 82% on IKKb (inhibitor 10 μM); 105% at MST2 (inhibitor 10 μM); 110% at CAMK-1 (inhibitor 10 μM).

For the compound `CC1=NCCc2c1[nH]c1cc(O)ccc21` [Harmalol], the remaining activity at 1 µM came to 93% on MARK3 (inhibitor 1 μM); 80% at MNK1 (inhibitor 1 μM); 93% at IKKb (inhibitor 1 μM); 85% on MST2 (inhibitor 1 μM); 93% at CAMK-1 (inhibitor 1 μM). Besides, the remaining activity at 10 µM on MARK3 (inhibitor 10 μM) stood at 84%; at MNK1 (inhibitor 10 μM), 48%; on IKKb (inhibitor 10 μM), 69%; at MST2 (inhibitor 10 μM), 74%; at CAMK-1 (inhibitor 10 μM), 60%.

Take `COc1ccc2c(c1)[nH]c1c(C)nccc12` [Harmine]: the remaining activity at 1 µM on MARK3 came out at 86%; on MNK1 it was 84%; on IKKb, 97%; on MST2 it was 91%; at CAMK-1, 107%. Also, the remaining activity at 10 µM on MARK3 was determined as 86%; at MNK1, 52%; on IKKb it was 73%; on MST2, 81%; at CAMK-1, 94%.
